Numbering of substitutions follows the chain as printed. Like-named read-outs stand apart in the source and are kept apart here.
Assays:
IDH2 R172W_P167R cis = molecular target: T1, IDH2 R172W_P167R cis (Homo sapiens, UniProt P48735, P167R/R172W); assay: Inhibition of 2-HG production in IDH2 mutant U-87 MG cells; format: cell-based; conditions: read-out: Relative IC50 (nM) Mean, inhibition of 2-HG production
T1 construct: expressed in transfected cells; host or cells: U-87 MG
T1 sequence (P48735 40-452 P167R/R172W): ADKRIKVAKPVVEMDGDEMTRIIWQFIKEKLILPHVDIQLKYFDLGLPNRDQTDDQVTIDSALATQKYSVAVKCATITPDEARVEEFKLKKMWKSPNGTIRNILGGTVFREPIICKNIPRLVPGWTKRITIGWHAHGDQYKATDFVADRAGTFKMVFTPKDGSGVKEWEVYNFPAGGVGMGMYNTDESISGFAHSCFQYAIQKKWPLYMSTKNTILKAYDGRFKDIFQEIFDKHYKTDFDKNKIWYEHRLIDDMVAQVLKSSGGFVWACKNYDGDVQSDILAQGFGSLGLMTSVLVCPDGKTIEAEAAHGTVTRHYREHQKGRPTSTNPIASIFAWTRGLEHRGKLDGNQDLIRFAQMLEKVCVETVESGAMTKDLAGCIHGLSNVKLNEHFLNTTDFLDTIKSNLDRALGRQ

IDH2 R172W = molecular target: T2, IDH2 R172W (Homo sapiens, UniProt P48735, R172W); assay: as above; format: cell-based; conditions: read-out: Relative IC50 (nM) Mean, inhibition of 2-HG production
T2 construct: expressed in transfected cells; host or cells: U-87 MG
T2 sequence (P48735 40-452 R172W): T1 sequence (P48735 40-452 P167R/R172W) with R128P

[1] = 16 hours incubation, 50K cells/well, 100 μl media/well
[2] = 72 hours incubation, 12.5K cells/well

IC50 (IDH2 R172W_P167R cis; [1]): 1280 nM
IC50 (IDH2 R172W_P167R cis; [2]): 535 nM
IC50 (IDH2 R172W; [1]): 336 nM
IC50 (IDH2 R172W; [2]): 47 nM
Structure (SMILES): C=CC(=O)N1CCN([C@@H](CC2CC2)c2ccc([C@H](C)Nc3ncc4c(n3)N(CC)C(=O)OC4)cc2)CC1 [Compound A, 7-[[(1S)-1-[4-[(1S)-2-cyclopropyl-1-(4-prop-2-enoylpiperazin-1-yl)ethyl]phenyl]ethyl]amino]-1-ethyl-4H-pyrimido[4,5-d][1,3]oxazin-2-one]
